The source of these data is US5432179A, “Piperazine derivatives and pharmaceuticals containing the same” (Zeria Pharmaceutical Co., Ltd., priority 1991, dated 1995).

For assay [1], the system named is passive cutaneous anaphylaxis (PCA). Nature of the assay: Antiallergic effects: passive cutaneous anaphylaxis (PCA), inhibition of leaked color amount. It is filed as in vivo, male SD rat. The settings on record: rat PCA; oral, 10 mg/4 ml/kg one hour before the administration of antigen. The procedure:
The back of a male SD rat (150-250 g in weight) was shaved in advance. Physiological saline and 0.1 ml of anti DNP-AS (Dinitrophenyl conjugated Ascaris) IgE serum which had been diluted to a suitable concentration with physiological saline were intradermally injected there. Fourty-eight hours after sensitization, the animals were challenged with 1 ml of 0.5% Evans blue physiological saline containing 2.5 mg/ml of DNP-BSA (dinitrophenyl conjugated bovine serum albumin) via the tail vein. Thirty minutes later, they were sacrificed under exsanguination and the dorsal skin was removed and the exuded dye was measured according to the method proposed by Harada et al. [Allergy, 15, 1-7(1966)]. The leaked color amount caused by the passive cutaneous anaphylaxis (PCA) was determined by subtracting the leaked color amount of the site to which physiological saline was administered from that of the PCA site. Each test compound was suspended in 5% gum arabic or 0.5% methylcellulose and the-resulting suspension was orally administered at the rate of 10 mg/4 ml/kg one hour before the administration of antigen. The efficacy of the test compound was evaluated by an ihibition rate (antiallergic effects) of the leaked color amount.

The subject of assay [2] is contraction reaction of the isolated ileum caused by histamine. Description: Antihistamic effects: inhibition of histamine-induced contraction of isolated guinea pig ileum (Magnus bath). To be noted: Cavia porcellus, histamine 3×10^-7 mole, test compound for 3 minutes before histamine, 30° C., read-out: antihistamic action (50% inhibition concentration: IC50 value). The format is cell-based, Hartley male guinea pig. The procedure: From a Hartley male guinea pig (300-600 g in weight), the ileum was isolated. The ileum was attached to a holder under a vesting tension of 0.5 g in a Magnus bath (30° C., under aeration) filled with 10 ml of the Tyrode solution. As a contraction reaction of the isolated ileum caused by histamine (3×10^-7 mole), an isometrical change in muscular tension was measured. The ileum was treated with the test compound for 3 minutes before the addition of histamine to study its effects and then its antihistamic action (50% inhibition concentration: IC50 value) was determined.
Incidentally, the IC50 value of Cetirizine (the compound disclosed in Japanese Patent Laid-Open No. 149282/1982) was determined as a control. Its IC value was 2.40 μM.

`O=C(O)c1ccccc1OCCN1CCN(C(c2ccccc2)c2ccccc2)CC1` [Example 9, 2-[2-[4-(Diphenylmethyl]-1-piperazinyl]ethoxy]-benzoic acid]: the “Antiallergic effects (inhibition rate of the leaked color amount)” value in assay [1] worked out at 61.9%. For `O=C(O)COCCN1CCN(C(c2ccccc2)c2ccc(Cl)cc2)CC1` (stereo not drawn) [Cetirizine], in assay [2], the IC50 came out at 2.4 µM. As for `O=C(O)c1ccccc1OCCN1CCN(C(c2ccccc2)c2ccc(Cl)cc2)CC1` (stereo not drawn) [Example 5, 2-[2-[4-[(4-Chlorophenyl)phenylmethyl]-1-piperazinyl]ethoxy]benzoic acid], the “Antiallergic effects (inhibition rate of the leaked color amount)” value in assay [1] was found to be 86.4%. With `O=C(Nc1nnn[nH]1)c1ccccc1OCCCN1CCN(C(c2ccccc2)c2ccccc2)CC1` [Example 46, 2-[3-[4-(Diphenylmethyl)-1-piperazinyl]propoxy]-N-1H-tetrazol-5-yl-benzamid], in assay [1], the “Antiallergic effects (inhibition rate of the leaked color amount)” value is on record as 59.8%. The same measure, in the same setting: the value for `O=C(Nc1nnn[nH]1)c1ccccc1SCCN1CCN(C(c2ccccc2)c2ccc(Cl)cc2)CC1` (stereo not drawn) [Example 44, 2-[[2-[4-[(4-Chlorophenyl)phenylmethyl]-1-piperazinyl]ethyl]thio]-N-1H-tetrazol-5-yl-benzamide] was 54.7%; that for `O=C(Nc1nnn[nH]1)c1ccccc1OCCN1CCN(C(c2ccccc2)c2ccc(Cl)cc2)CC1` (stereo not drawn) [Example 41, 2-[2-[4-[(4-Chlorophenyl)phenylmethyl]-1-piperazinyl]ethoxy]-N-1H-tetrazol-5-yl-benzamide] was 52.3%; that for `O=C(COCCN1CCN(C(c2ccccc2)c2ccc(Cl)cc2)CC1)Nc1nnn[nH]1` (stereo not drawn) [Example 50, 2-[2-[4-[(4-Chlorophenyl)phenylmethyl]-1-piperazinyl]ethoxy]-N-1H-tetrazol-5-yl-acetamide] was 60.4%. Same read-out and setting: under `O=C(Nc1nnn[nH]1)c1ccccc1OCCCN1CCN(C(c2ccccc2)c2ccc(Cl)cc2)CC1` (stereo not drawn) [Example 45, 2-[3-[4-[(4-Chlorophenyl)phenylmethyl]-1-piperazinyl]propoxy]-N-1H-tetrazol-5-yl-benzamide] stands 72.4%. Same read-out and setting: the value for “2-[2-[4-[(4-Chlorophenyl)phenylmethyl]-1-piperazinyl]ethoxy]-1-tetrazol-5-ylmethyl [Example 69]” was 81.0%.
